Data taken from patent US20250122174A1 (Shenzhen Yuanli Shenwan Innovative Medicine Co., Ltd., priority 2022, published 2025).

target: HPK1 (Homo sapiens (Human), UniProt Q92918); assay: HPK1 Inhibition Assay (ADP-Glo kinase assay); format: biochemical; conditions: ATP 10 μM
In short: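 ADP-Glo luminescence read-out after 1 h room-temperature kinase reaction with 10 μM ATP and 0.1 μg/ml MBP. Recombinant human HPK1 at 7.5 ng/μl; buffer 40 mM Tris pH 7.5, 20 mM MgCl2. Compounds serially diluted 5-fold over 10 points from 10 mM DMSO stock.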

Sequence of HPK1 (Q92918 1-346 limits assumed): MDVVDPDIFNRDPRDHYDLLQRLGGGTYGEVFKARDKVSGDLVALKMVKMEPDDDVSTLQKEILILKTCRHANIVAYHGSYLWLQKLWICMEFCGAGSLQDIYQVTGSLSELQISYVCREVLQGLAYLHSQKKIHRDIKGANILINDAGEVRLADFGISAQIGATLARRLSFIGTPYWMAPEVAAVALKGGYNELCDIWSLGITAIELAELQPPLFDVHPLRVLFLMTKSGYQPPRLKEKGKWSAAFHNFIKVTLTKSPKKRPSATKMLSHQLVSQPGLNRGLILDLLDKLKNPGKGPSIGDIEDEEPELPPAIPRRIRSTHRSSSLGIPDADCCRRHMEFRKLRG

IC50, < 100 nM:
Cc1nc2c(N3C[C@H](N)C(C)(C)C3)c(NC(=O)c3ccc(=O)n(-c4c(F)cccc4F)n3)ccc2n1[C@H]1CCOC1 [Example 150, N-(4-((R)-4-amino-3,3-dimethylpyrrolidin-1-yl)-2-methyl-1-((S)-tetrahydrofuran-3-yl)-1H-benzo[d]imidazol-5-yl)-1-(2,6-difluorophenyl)-6-oxo-1,6-dihydropyridazine-3-carboxamide]
Cc1nc2c(N3C[C@H](N)C4(CC4)C3)c(NC(=O)c3ccc(=O)n(-c4c(F)cccc4F)n3)ccc2n1C1CCOCC1 [Example 151, 1-(2,6-difluorophenyl)-N-(4-[(7R)-7-amino-5-azaspiro[2.4]heptan-5-yl]-2-methyl-1-(3,4,5,6-tetrahydro-2H-pyran-4-yl)benzo[d]imidazol-5-yl)-6-oxo-1,2-diazine-3-carboxamide]
Cc1nc2c(N3C[C@H](N)C4(CC4)C3)c(NC(=O)c3ccc(=O)n(-c4c(F)cccc4F)n3)ccc2n1[C@H]1CCOC1 [Example 152, N-(4-((R)-7-amino-5-azaspiro[2.4]heptan-5-yl)-2-methyl-1-((S)-tetrahydrofuran-3-yl)-1H-benzo[d]imidazol-5-yl)-1-(2,6-difluorophenyl)-6-oxo-1,6-dihydropyridazine-3-carboxamide]
C[C@@H]1CN(c2c(NC(=O)c3ccc(=O)n(-c4c(F)cccc4F)n3)ccc3c2ncn3C2CCOCC2)C[C@@H]1N [Example 153, N-(4-((3R,4R)-3-amino-4-methylpyrrolidin-1-yl)-1-(tetrahydro-2H-pyran-4-yl)-1H-benzo[d]imidazol-5-yl)-1-(2,6-difluorophenyl)-6-oxo-1,6-dihydropyridazine-3-carboxamide]
CC(C)n1cnc2c(N3C[C@@H](C)[C@@H](N)C3)c(NC(=O)c3ccc(=O)n(-c4c(F)cccc4F)n3)ccc21 [Example 154, N-(4-((3R,4R)-3-amino-4-methylpyrrolidin-1-yl)-1-isopropyl-1H-benzo[d]imidazol-5-yl)-1-(2,6-difluorophenyl)-6-oxo-1,6-dihydropyridazine-3-carboxamide]
Cn1c(C(C)(C)F)nc2c(N3CC[C@@H](N)C3)c(NC(=O)c3ccc(=O)n(-c4c(F)cccc4F)n3)ccc21 [Example 155]
Cn1c(CC(F)(F)F)nc2c(N3CC[C@@H](N)C3)c(NC(=O)c3ccc(=O)n(-c4c(F)cccc4F)n3)ccc21 [Example 156, (R)-N-(4-(3-aminopyrrolidin-1-yl)-1-methyl-2-(2,2,2-trifluoroethyl)-1H-benzo[d]imidazol-5-yl)-1-(2,6-difluorophenyl)-6-oxo-1,6-dihydropyridazine-3-carboxamide]
Cn1c(C(C)(C)F)nc2c(N3CC[C@@H](N)C3)c(NC(=O)c3ccc(=O)n(-c4c(F)cccc4F)n3)cc(F)c21 [Example 157, (R)-N-(4-(3-aminopyrrolidin-1-yl)-7-fluoro-2-(2-fluoropropan-2-yl)-1-methyl-1H-benzo[d]imidazol-5-yl)-1-(2,6-difluorophenyl)-6-oxo-1,6-dihydropyridazine-3-carboxamide]
Cn1c(C(C)(C)C(F)(F)F)nc2c(N3CC[C@@H](N)C3)c(NC(=O)c3ccc(=O)n(-c4c(F)cccc4F)n3)ccc21 [Example 158, (R)-N-(4-(3-aminopyrrolidin-1-yl)-1-methyl-2-(1,1,1-trifluoro-2-methylpropan-2-yl)-1H-benzo[d]imidazol-5-yl)-1-(2,6-difluorophenyl)-6-oxo-1,6-dihydropyridazine-3-carboxamide]
Cn1c(C(F)F)nc2c(N3CC[C@@H](N)C3)c(NC(=O)c3ccc(=O)n(-c4c(F)cccc4F)n3)ccc21 [Example 159, (R)-N-(4-(3-aminopyrrolidin-1-yl)-2-(difluoromethyl)-1-methyl-1H-benzo[d]imidazol-5-yl)-1-(2,6-difluorophenyl)-6-oxo-1,6-dihydropyridazine-3-carboxamide]
Cn1c(C2CC2)nc2c(N3CC[C@@H](N)C3)c(NC(=O)c3ccc(=O)n(-c4c(F)cccc4F)n3)ccc21 [Example 160, (R)-N-(4-(3-aminopyrrolidin-1-yl)-2-cyclopropyl-1-methyl-1H-benzo[d]imidazol-5-yl)-1-(2,6-difluorophenyl)-6-oxo-1,6-dihydropyridazine-3-carboxamide]
Cn1c(C(F)F)nc2c(N3CC[C@H](N)C3)c(NC(=O)c3ccc(=O)n(-c4c(F)cccc4F)n3)ccc21 [Example 161, (S)-N-(4-(3-aminopyrrolidin-1-yl)-2-(difluoromethyl)-1-methyl-1H-benzo[d]imidazol-5-yl)-1-(2,6-difluorophenyl)-6-oxo-1,6-dihydropyridazine-3-carboxamide]
CSCc1nc2c(N3CC[C@@H](N)C3)c(NC(=O)c3ccc(=O)n(-c4c(F)cccc4F)n3)ccc2n1C [Example 162, (R)-N-(4-(3-aminopyrrolidin-1-yl)-1-methyl-2-((methylthio)methyl)-1H-benzo[d]imidazol-5-yl)-1-(2,6-difluorophenyl)-6-oxo-1,6-dihydropyridazine-3-carboxamide]
CC(C)c1nc2c(N3CC[C@@H](N)C3)c(NC(=O)c3ccnn(-c4c(F)cccc4F)c3=O)ccc2n1C [Example 163, (R)-N-(4-(3-aminopyrrolidin-1-yl)-2-isopropyl-1-methyl-1H-benzo[d]imidazol-5-yl)-2-(2,6-difluorophenyl)-3-oxo-2,3-dihydropyridazine-4-carboxamide]
COc1cccc(F)c1-c1nccc(C(=O)Nc2ccc3c(nc(CS(C)(=O)=O)n3C)c2N2CC[C@@H](N)C2)c1F [Example 165, N-(4-((R)-3-aminopyrrolidin-1-yl)-1-methyl-2-((methylsulfonyl)methyl)-1H-benzo[d]imidazol-5-yl)-3-fluoro-2-(2-fluoro-6-methoxyphenyl)isonicotinamide]
C[C@@H]1CN(c2c(NC(=O)c3ccc(=O)n(-c4c(F)cccc4F)n3)ccc3c2cnn3C)C[C@@H]1N [Example 166, N-[4-[(3R,4R)-3-amino-4-methyl-pyrrolidin-1-yl]-1-methyl-indazol-5-yl]-1-(2,6-difluorophenyl)-6-oxo-pyridazine-3-carboxamide]
Cn1ncc2c(N3CC[C@@H](N)C3)c(NC(=O)c3ccc(=O)n(-c4c(F)cccc4F)n3)ccc21 [Example 167, (R)-N-(4-(3-aminopyrrolidin-1-yl)-1-methyl-1H-indazol-5-yl)-1-(2,6-difluorophenyl)-6-oxo-1,6-dihydropyridazine-3-carboxamide]
Cn1ncc2c(N3CCC(N)CC3)c(NC(=O)c3ccc(=O)n(-c4c(F)cccc4F)n3)cc(F)c21 [Example 168, N-(4-(4-aminopiperidin-1-yl)-7-fluoro-1-methyl-1H-indazol-5-yl)-1-(2,6-difluorophenyl)-6-oxo-1,6-dihydropyridazine-3-carboxamide]
Cn1ncc2c(N3CCC[C@@H](N)C3)c(NC(=O)c3ccc(=O)n(-c4c(F)cccc4F)n3)cc(F)c21 [Example 169, (R)-N-(4-(3-aminopiperidin-1-yl)-7-fluoro-1-methyl-1H-indazol-5-yl)-1-(2,6-difluorophenyl)-6-oxo-1,6-dihydropyridazine-3-carboxamide]
C[C@@H]1CN(c2c(NC(=O)c3ccc(=O)n(-c4c(F)cccc4F)n3)cc(F)c3c2cnn3C)C[C@@H]1N [Example 170, N-(4-((3R,4R)-3-amino-4-methylpyrrolidin-1-yl)-7-fluoro-1-methyl-1H-indazol-5-yl)-1-(2,6-difluorophenyl)-6-oxo-1,6-dihydropyridazine-3-carboxamide]
[2H]C([2H])([2H])n1ncc2c(N3C[C@@H](C)[C@@H](N)C3)c(NC(=O)c3ccc(=O)n(-c4c(F)cccc4F)n3)ccc21 [Example 171, N-(4-((3R,4R)-3-amino-4-methylpyrrolidin-1-yl)-1-(methyl-d3)-1H-indazol-5-yl)-1-(2,6-difluorophenyl)-6-oxo-1,6-dihydropyridazine-3-carboxamide]
[2H]C([2H])([2H])n1ncc2c(N3C[C@H](N)C4(CC4)C3)c(NC(=O)c3ccc(=O)n(-c4c(F)cccc4F)n3)ccc21 [Example 172, (R)-N-(4-(7-amino-5-azaspiro[2.4]heptan-5-yl)-1-(methyl-d3)-1H-indazol-5-yl)-1-(2,6-difluorophenyl)-6-oxo-1,6-dihydropyridazine-3-carboxamide]
C[C@H]1CN(c2c(NC(=O)c3ccc(=O)n(-c4c(F)cccc4F)n3)ccc3c2cnn3C)C[C@@H]1N [Example 173, N-(4-((3R,4S)-3-amino-4-methylpyrrolidin-1-yl)-1-methyl-1H-indazol-5-yl)-1-(2,6-difluorophenyl)-6-oxo-1,6-dihydropyridazine-3-carboxamide]
Cn1ncc2c(N3C[C@H](N)C4(CC4)C3)c(NC(=O)c3ccc(=O)n(-c4c(F)cccc4F)n3)ccc21 [Example 174, (R)-N-(4-(7-amino-5-azaspiro[2.4]heptan-5-yl)-1-methyl-1H-indazol-5-yl)-1-(2,6-difluorophenyl)-6-oxo-1,6-dihydropyridazine-3-carboxamide]
Cn1cc2c(N3CC[C@@H](N)C3)c(NC(=O)c3ccc(=O)n(-c4c(F)cccc4F)n3)ccc2n1 [Example 175, (R)—N-(4-(3-aminopyrrolidin-1-yl)-2-methyl-2H-indazol-5-yl)-1-(2,6-difluorophenyl)-6-oxo-1,6-dihydropyridazine-3-carboxamide]
Cn1cc2c(N3CCC[C@@H](N)C3)c(NC(=O)c3ccc(=O)n(-c4c(F)cccc4F)n3)ccc2n1 [Example 176, (R)-N-(4-(3-aminopiperidin-1-yl)-2-methyl-2H-indazol-5-yl)-1-(2,6-difluorophenyl)-6-oxo-1,6-dihydropyridazine-3-carboxamide]
